In patent publication US10934309B2, “Tricyclic quinone derivative” (Boston Biomedical, Inc., priority 2014, dated 2021) one finds IC50 data, which are given here for 16 molecules.

Molecules are shown by their SMILES. Bounds are passed on as bounds.

Holding throughout (format): cell-based, human
Experiment [1] concerns FaDu cells. Kind of experiment: Inhibition assay of cancer cell sphere-forming ability (Test Example 2), FaDu. As to conditions: Homo sapiens, FaDu, 96 h, read-out: IC50 (μM) FaDu, concentration for 50% inhibition of cell proliferation (Sphere IC50 value). The method, then: (§1) HCT-116 cells (derived from human colon adenocarcinoma), HT-29 cells (derived from human colon cancer), FaDu cells (derived from human hypopharynx cancer) were obtained from American Type Culture Collection (ATCC). […] HCT-116 cells, HT-29 cells, and FaDu cells were seeded onto 384 Well Black Clear Bottom Ultra-Low Attachment Microplate (Corning Cat. […] A test substance was added so that the final concentration of DMSO is 0.1%, and then cultured for 4 days. […] A test shown in Test example 2 was carried out for compounds obtained in the Examples.

Experiment [2] deals with FaDu cells. Kind of experiment: Proliferation inhibition assay of cancer cells (Test Example 1), FaDu. As to conditions: Homo sapiens, FaDu, 96 h, read-out: IC50 (μM) FaDu, concentration for 50% inhibition of cell proliferation (Bulk IC50 value). The method, then: (§2) HCT-116 cells (derived from human colon adenocarcinoma), HT-29 cells (derived from human colon cancer), and FaDu cells (derived from human hypopharynx cancer) were obtained from American Type Culture Collection (ATCC). […] After cells were seeded at 300-600 cells/well onto black μClear-plate 384 well (Greiner bio-one Cat. No. 781091), a test substance was added such that the final concentration of DMSO is 0.1%, and cultured for 4 days. […] A test shown in Test example 1 was carried out for compounds obtained in the Examples.

For experiment [3], the system named is HCT-116 cells. Kind of experiment: Proliferation inhibition assay of cancer cells (Test Example 1), HCT-116. As to conditions: Homo sapiens, HCT-116, 96 h, read-out: IC50 (μM) HCT, concentration for 50% inhibition of cell proliferation (Bulk IC50 value). The method, then:
as §2

Experiment [4] deals with HT-29 cells. The experiment is described as follows: Proliferation inhibition assay of cancer cells (Test Example 1), HT-29. As to conditions: Homo sapiens, HT-29, 96 h, read-out: IC50 (μM) HT, concentration for 50% inhibition of cell proliferation (Bulk IC50 value). The method, then:
as §2

For experiment [5], the system named is HT-29 cells. The experiment is described as follows: Inhibition assay of cancer cell sphere-forming ability (Test Example 2), HT-29. As to conditions: Homo sapiens, HT-29, 96 h, read-out: IC50 (μM) HT, concentration for 50% inhibition of cell proliferation (Sphere IC50 value). The method, then: as §1
In experiment [6] the test system is HCT-116 cells. Kind of experiment: Inhibition assay of cancer cell sphere-forming ability (Test Example 2), HCT-116. As to conditions: Homo sapiens, HCT-116, 96 h, read-out: IC50 (μM) HCT, concentration for 50% inhibition of cell proliferation (Sphere IC50 value). The method, then: as §1
[7] abbreviates: FaDu cells, Ultra-Low Attachment plate, serum-free DMEM/F12 with B27, EGF, bFGF, insulin, 4 days, Cell Titer-Glo.
The mark [8] stands for this setting: FaDu cells, cultured for 4 days, Cell Titer-Glo.
Where [9] appears, read: HCT-116 cells, cultured for 4 days, Cell Titer-Glo.
[10] abbreviates: HT-29 cells, cultured for 4 days, Cell Titer-Glo.
Setting [11] is: HT-29 cells, Ultra-Low Attachment plate, serum-free DMEM/F12 with B27, EGF, bFGF, insulin, 4 days, Cell Titer-Glo.
Where [12] appears, read: HCT-116 cells, Ultra-Low Attachment plate, serum-free DMEM/F12 with B27, EGF, bFGF, insulin, 4 days, Cell Titer-Glo.

As a reminder, the IC50 is the midpoint of a concentration-inhibition curve.

`CCOC(=O)N(CC)Cc1cc2c(o1)C(=O)c1cccnc1C2=O` [Example 11, ethyl [(4,9-dioxo-4,9-dihydrofuro[2,3-g]quinolin-2-yl)methyl]ethylcarbamate]: the concentration for half-maximal inhibition (IC50) in experiment [1] (setting [7]) is 0.28 µM; in experiment [2] (setting [8]), 0.45 µM; in experiment [3] (setting [9]), 0.49 µM; in experiment [4] (setting [10]), 3.85 µM; in experiment [5] (setting [11]), 0.71 µM; in experiment [6] (setting [12]) it was 0.46 µM.
Turning to `O=C1c2cnccc2C(=O)c2sc(N3CCOCC3)cc21` [Example 32, 2-(morpholin-4-yl)thieno[2,3-g]isoquinoline-4,9-dione], the half-inhibitory concentration (IC50) in experiment [1] (setting [7]) is 1.25 µM; in experiment [2] (setting [8]) it was 2.15 µM; in experiment [3] (setting [9]), 6.56 µM; in experiment [4] (setting [10]), greater than 10 µM; in experiment [5] (setting [11]), greater than 10 µM; in experiment [6] (setting [12]) it was 7.7 µM.
For `CC(O)c1cc2c(s1)C(=O)c1ncccc1C2=O` (stereo not drawn) [Example 37, 2-(1-hydroxyethyl)thieno[3,2-g]quinoline-4,9-dione], the IC50 in experiment [1] (setting [7]) was 0.06 µM; in experiment [2] (setting [8]), 0.08 µM; in experiment [3] (setting [9]) it was 0.06 µM; in experiment [4] (setting [10]), 0.62 µM; in experiment [5] (setting [11]), 0.49 µM; in experiment [6] (setting [12]) it was 0.06 µM.
Take `O=C1c2cnccc2C(=O)c2sc(CN(CC(F)F)C(=O)C3CCCCC3)cc21` [Example 28, N-(2,2-difluoroethyl)-N-((4,9-dioxo-4,9-dihydrothieno[2,3-g]isoquinolin-2-yl)methyl)cyclohexanecarboxamide]: the IC50 in experiment [1] (setting [7]) was determined as 0.09 µM; in experiment [2] (setting [8]) it was 0.08 µM; in experiment [3] (setting [9]), 0.47 µM; in experiment [4] (setting [10]), 0.63 µM; in experiment [5] (setting [11]), 0.59 µM; in experiment [6] (setting [12]), 0.57 µM.
As for `CC(=O)c1cc2c(o1)C(=O)c1ccncc1C2=O` [Example 44, 2-acetylfuro[2,3-g]isoquinoline-4,9-dione], the IC50 is 0.04 µM in experiment [1] (setting [7]); 0.03 µM in experiment [2] (setting [8]); 0.06 µM in experiment [3] (setting [9]); 0.51 µM in experiment [4] (setting [10]); 0.08 µM in experiment [5] (setting [11]); 0.06 µM in experiment [6] (setting [12]).
As for `COc1c2ccncc2c(OC)c2sc(C(C)O)cc12` (stereo not drawn) [Example 34, 1-(4,9-dimethoxythieno[3,2-g]isoquinolin-2-yl)ethanol], the 50% inhibitory concentration (IC50) in experiment [1] (setting [7]) turned out to be 0.04 µM; in experiment [2] (setting [8]), 0.04 µM; in experiment [3] (setting [9]), 0.07 µM; in experiment [4] (setting [10]), 0.64 µM; in experiment [5] (setting [11]) it was 0.5 µM; in experiment [6] (setting [12]), 0.24 µM.
`CC(=O)c1oc2c(c1C(=O)N1CCOCC1)C(=O)c1cnccc1C2=O` [Example 47, 2-acetyl-3-(morpholin-4-carbonyl)furo[2,3-g]isoquinoline-4,9-dione]: the concentration for half-maximal inhibition (IC50) was found to be 0.05 µM in experiment [1] (setting [7]); 0.05 µM in experiment [2] (setting [8]); 0.36 µM in experiment [3] (setting [9]); 0.41 µM in experiment [4] (setting [10]); 0.17 µM in experiment [5] (setting [11]); 0.26 µM in experiment [6] (setting [12]).
With `CC1CNCC(C)(C(=O)c2cc3c(s2)C(=O)c2ncccc2C3=O)C1` (stereo not drawn) [Example 39, 2-[(3,5-dimethylpiperidin-5-yl)carbonyl]thieno[3,2-g]quinoline-4,9-dione], the IC50 in experiment [1] (setting [7]) was 0.45 µM; in experiment [2] (setting [8]), 0.09 µM; in experiment [3] (setting [9]) it was 0.38 µM; in experiment [4] (setting [10]), 3.71 µM; in experiment [5] (setting [11]), 0.55 µM; in experiment [6] (setting [12]), 0.35 µM.
For the molecule `O=C1c2cnccc2C(=O)c2sc(CO)cc21` [Example 14, 2-(1-hydroxymethyl)thieno[2,3-g]isoquinoline-4,9-dione], the half-maximal inhibitory concentration (IC50) in experiment [1] (setting [7]) was determined as 0.02 µM; in experiment [2] (setting [8]) it was 0.03 µM; in experiment [3] (setting [9]), 0.06 µM; in experiment [4] (setting [10]) it was 0.48 µM; in experiment [5] (setting [11]), 0.09 µM; in experiment [6] (setting [12]), 0.09 µM.
Regarding `CCN(Cc1cc2c(o1)C(=O)c1cccnc1C2=O)S(=O)(=O)CC(C)C` [Example 10, N-[(4,9-dioxo-4,9-dihydrofuro[2,3-g]quinolin-2-yl)methyl]-N-ethyl-2-methylpropane-1-sulfonamide], the concentration for half-maximal inhibition (IC50) in experiment [1] (setting [7]) was 0.09 µM; in experiment [2] (setting [8]), 0.5 µM; in experiment [3] (setting [9]) it was 0.5 µM; in experiment [4] (setting [10]), 6.14 µM; in experiment [5] (setting [11]), 0.53 µM; in experiment [6] (setting [12]), 0.38 µM.
As to `CCN(CCOC)Cc1cc2c(s1)C(=O)c1cccnc1C2=O` [Example 6, 2-{[ethyl(2-methoxyethyl)amino]methyl}thieno[2,3-g]quinoline-4,9-dione], the IC50 was 0.33 µM in experiment [1] (setting [7]); 0.41 µM in experiment [2] (setting [8]); 0.39 µM in experiment [3] (setting [9]); 0.93 µM in experiment [4] (setting [10]); 0.63 µM in experiment [5] (setting [11]); 0.2 µM in experiment [6] (setting [12]).
On to `O=C1c2ccncc2C(=O)c2sc(CNCC(F)F)cc21` [Example 35, 2-{[(2,2-Difluoroethyl)amino]methyl}thieno[3,2-g]isoquinoline-4,9-dione], for which the IC50 stood at 0.04 µM in experiment [1]; 0.05 µM in experiment [2]; 0.08 µM in experiment [3]; 0.6 µM in experiment [4]; 0.39 µM in experiment [5]; 0.27 µM in experiment [6].
On to `CC(=O)c1cc2c(o1)C(=O)c1cnccc1C2=O` [Example 48, 2-acetylfuro[3,2-g]isoquinoline-4,9-dione], for which the IC50 worked out at 0.05 µM in experiment [1] (setting [7]); 0.06 µM in experiment [2] (setting [8]); 0.07 µM in experiment [3] (setting [9]); 0.62 µM in experiment [4] (setting [10]); 0.55 µM in experiment [5] (setting [11]); 0.07 µM in experiment [6] (setting [12]).
On to `CC(C)(O)c1cc2c(o1)C(=O)c1sccc1C2=O` [Example 54, 2-(2-hydroxypropan-2-yl)thieno[3,2-f][1]benzofuran-4,8-dione], for which the concentration for half-maximal inhibition (IC50) amounted to 0.59 µM in experiment [1] (setting [7]); 0.67 µM in experiment [2] (setting [8]); 0.61 µM in experiment [3] (setting [9]); 2.47 µM in experiment [4] (setting [10]); 0.77 µM in experiment [5] (setting [11]); 0.6 µM in experiment [6] (setting [12]).
For the molecule `CC(O)c1cc2c(o1)C(=O)c1sccc1C2=O` (stereo not drawn) [Example 53, 2-(1-hydroxyethyl)thieno[3,2-f][1]benzofuran-4,8-dione], the IC50 turned out to be 0.45 µM in experiment [1] (setting [7]); 0.64 µM in experiment [2] (setting [8]); 0.55 µM in experiment [3] (setting [9]); 0.68 µM in experiment [4] (setting [10]); 0.59 µM in experiment [5] (setting [11]); 0.56 µM in experiment [6] (setting [12]).
In the case of `CCN(Cc1cc2c(s1)C(=O)c1ccncc1C2=O)C1CCCCC1` [Example 25, 2-{[Cyclohexyl(ethyl)amino]methyl}thieno[2,3-g]isoquinoline-4,9-dione], the half-maximal inhibitory concentration (IC50) in experiment [1] (setting [7]) was 0.06 µM; in experiment [2] (setting [8]), 0.46 µM; in experiment [3] (setting [9]), 0.69 µM; in experiment [4] (setting [10]), 0.96 µM; in experiment [5] (setting [11]) it was less than 0.01 µM; in experiment [6] (setting [12]), 0.8 µM.
